According to ChEMBL document CHEMBL1201862, “PubChem BioAssay data set” (2004):
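The compound was tested at five concentrations on cells cultured in 96-well plates, with a 48-hour exposure period. Here, GI50 denotes the concentration required for 50% inhibition of growth.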 The source made the active and inactive calls. Cut-off read from the data, not from the text of the source: active = GI50 up to about 1.1 µM and inactive = higher.

Experiments:
Assay in all cases: NCI anticancer screen, dose series, 48 h
A549 = test system: A549
ACHN = test system: ACHN
COLO 205 = test system: COLO 205
HL-60 = test system: HL-60
HOP-92 = test system: HOP-92
HT-29 = test system: HT-29
K562 = test system: K562
NCI-H23 = test system: NCI-H23
OVCAR-5 = test system: OVCAR-5
SK-MEL-28 = test system: SK-MEL-28
SK-MEL-5 = test system: SK-MEL-5
SN12C = test system: SN12C
SNB-19 = test system: SNB-19
UACC-257 = test system: UACC-257
UACC-62 = test system: UACC-62
NCI-H226 = test system: NCI-H226
OVCAR-4 = test system: OVCAR-4

Measured: GI50

CC(C)(C)CI
inactive: A549 25.6 µM | ACHN 20.7 µM | COLO 205 22.2 µM | HL-60 22.9 µM | HOP-92 26.2 µM | HT-29 > 10 µM | K562 21.6 µM | NCI-H23 55.6 µM | OVCAR-5 32.2 µM | SK-MEL-28 50.6 µM | SK-MEL-5 16.9 µM | SN12C 18.4 µM | SNB-19 23 µM | UACC-257 21.2 µM | UACC-62 29.9 µM

CC(C)OP(=O)(OC(C)C)/C(=N/Nc1ccc([N+](=O)[O-])cc1)NCCO
inactive: A549 74.8 µM | ACHN 54.1 µM | COLO 205 > 100 µM | HL-60 42.7 µM | HOP-92 64.1 µM | K562 71.8 µM | NCI-H226 > 100 µM | NCI-H23 > 100 µM | OVCAR-4 > 100 µM | OVCAR-5 > 100 µM | SK-MEL-28 > 100 µM | SK-MEL-5 > 100 µM | SN12C > 100 µM | SNB-19 > 100 µM | UACC-257 > 100 µM | UACC-62 26.2 µM

C=CCN1C(N)=C(C(N)=O)S/C1=C1/SC(=S)N(c2ccc(C)cc2)C1=O
inactive: A549 > 100 µM | ACHN > 100 µM | COLO 205 > 100 µM | HL-60 > 100 µM | HOP-92 > 100 µM | HT-29 > 100 µM | K562 > 100 µM | NCI-H226 > 100 µM | NCI-H23 65.3 µM | OVCAR-5 5.66 µM | SK-MEL-28 > 100 µM | SK-MEL-5 > 100 µM | SNB-19 > 100 µM | UACC-257 > 100 µM | UACC-62 > 100 µM

COc1ccc(CNc2nc3cc(C(F)(F)F)ccc3nc2C)cc1OC
inactive: A549 32.1 µM | COLO 205 32.9 µM | HL-60 19.9 µM | HT-29 39.9 µM | K562 29.1 µM | NCI-H23 35.7 µM | OVCAR-4 12 µM | OVCAR-5 37.5 µM | SK-MEL-28 44.1 µM | SK-MEL-5 17.3 µM | SN12C 30.5 µM | SNB-19 41.6 µM | UACC-257 19 µM | UACC-62 31.6 µM

N#CC(NC12CC3CC(CC(C3)C1)C2)c1ccccc1C(F)(F)F (stereo unspecified)
inactive: A549 > 100 µM | ACHN > 100 µM | COLO 205 > 100 µM | HL-60 > 100 µM | HT-29 > 100 µM | K562 > 100 µM | NCI-H226 > 100 µM | NCI-H23 > 100 µM | OVCAR-4 > 100 µM | OVCAR-5 > 100 µM | SK-MEL-28 > 100 µM | SK-MEL-5 > 100 µM | SN12C > 100 µM | SNB-19 > 100 µM

COc1cc2nc(-c3cccc(N(C)C)c3)cc(O)c2cc1OC
inactive: A549 4.06 µM | ACHN 14.5 µM | COLO 205 3.85 µM | HL-60 2.7 µM | HOP-92 > 100 µM | HT-29 3.2 µM | K562 3.62 µM | NCI-H226 3.58 µM | NCI-H23 3.54 µM | OVCAR-4 > 100 µM | OVCAR-5 5.18 µM | SK-MEL-5 4.36 µM | SN12C 7.67 µM | SNB-19 4.98 µM | UACC-257 5.28 µM | UACC-62 3.44 µM

COc1cc(Nc2c3ccccc3nc3ccccc23)ccc1NS(C)(=O)=O
inactive: A549 2.42 µM | ACHN 4.11 µM | COLO 205 3.48 µM | HL-60 4.79 µM | HT-29 3.34 µM | K562 34.4 µM | NCI-H226 11.2 µM | NCI-H23 > 10 µM | OVCAR-4 3.61 µM | OVCAR-5 11 µM | SK-MEL-28 7.52 µM | SK-MEL-5 6.53 µM | SN12C 2.58 µM | SNB-19 5.73 µM | UACC-257 11.9 µM | UACC-62 6.61 µM
